Laboratory results published in patent US20210378985A1, “METHOD AND COMPOUND FOR THE TREATMENT OF HEPATITIS C” (priority 2020, published 2021).

Experiments:
[1] = tested on: core protein in Huh 7 cells; conditions: cited from earlier work
[2] = tested on: HCV subgenomic replicon; conditions: at both mRNA and protein level; cited from earlier work
[3] = tested on: HIV-1; assay: Co-cultivation of HIV-1 infected cells with uninfected target cells; assay type: cell-based
Excerpt: Viral pathogenesis in co-cultivation of infected cells with uninfected target cells presents a complex system with several target sites (attachment, fusion, transcription, processing, packaging and budding).
In many documented antiretroviral studies, the co-culture system is conventionally used to isolate the virus as well as to study cell-to-cell transmission or to determine if a given compound blocks cell fusion.

[4] = tested on: gamma interferon; assay: Gamma interferon production stimulated by 90I; assay type: cell-based; conditions: versus positive control PMA-Ionomycin combination
[5] = tested on: HIV-1; assay: Cell-based time course study (mode of action); conditions: drug addition at various time points
Excerpt: The time course study may be an important tool for the determination of viral kinetics and drug mode of action. The dynamics of drug-virus interaction, competitive or non-competitive, kinetics provides a dose response curve from which a broad lead mechanism of action can be drawn. The dynamics of the interactions relate to the viral kinetic of infection and drug addition at various time points.

O=C1C[C@@H](c2ccc(O)cc2)Oc2cc(O)cc(O)c21 [Naringenin]
activity of core protein ([1]; Huh 7 cells): suppressed the activity of core protein | assembly of HCV particles [1]: effectively blocked the assembly of HCV particles

C[C@@H]1CC[C@@]2(OC1)O[C@H]1C[C@H]3[C@@H]4CC=C5C[C@@H](O)CC[C@]5(C)[C@H]4CC[C@]3(C)[C@H]1[C@@H]2C [Diosgenin]
replication of HCV subgenomic replicon [2]: effectively blocked the replication of the HCV subgenomic replicon

O=C(OCCOCCOC(=O)c1ccccc1)c1ccccc1 [Compound 90I, diethylene glycol dibenzoate]
syncytium formation [3]: drastic drop of syncytium formation | cell viability ([3]; exponential cell growth dynamics): greater than ninety percent | amount of gamma interferon produced [4]: equivalent to that of the positive control | mode of action (early/late) [5]: works both early and late
